# Experimental data as given in patent publication US12390537B2, “Compositions of polymeric microdevices and methods of use thereof in cancer immunotherapy” (Massachusetts Institute of Technology, priority 2020, dated 2025).
# Columns and labels:
# [1] = tested on: IFNγ+CD8+ T cells; assay: Flow cytometry of IFNγ+CD8+ T cells in serum, B16F10 model; format: in vivo, mice
# Method: To stain the intracellular marker, e.g., IFN-γ, cells were pre-stimulated with cell stimulation cocktail (eBioscience, cat. no. 00-4970-93) for 4-6 h, fixed and permeabilized using fixation/permeabilization solution kit (BD, cat. no. 554714), and then stained with both anti-IFN-γ and other surface antibodies. […] Flow cytometry data were acquired on an LSRFortessa cell analyzer (BD) and analyzed using FlowJo software.
# To study whether activation of STING in the TME triggers systemic antitumor immunity, mouse serum was collected from the antitumor efficacy study of B16F10 melanoma model (FIG. 3D) 21 and 28 days after tumor inoculation and analyzed by flow cytometry. cGAMP-MPs and 4×cGAMP-S treatments increased 5.1- and 4.9-fold of IFNγ+CD8+ T cells in serum at day 21 compared to the untreated group (FIG. 5A). […]
# [2] = tested on: immune cells in TME of B16F10 melanoma tumors; assay: Flow cytometry of immune cells in B16F10 TME; format: in vivo, mice
# Method: Mice bearing B16F10 tumors were treated with the following 4 experimental groups (n=8): untreated, 1×EPs, 3×cGAMP-S, and 1×cGAMP-S plus cGAMP-MPs, respectively (FIG. 4A). Tumors were collected at day 16 post tumor inoculation and cut into 50-100 mg small pieces in a 1.5 mL microcentrifuge tube. The tumors were lysed in radioimmunoprecipitation assay (RIPA) buffer (Sigma-Aldrich), homogenized, and centrifuged at 20130 rcf for 10 min. The protein content in the supernatant was quantified using a bicinchoninic acid protein assay kit (Thermo Fisher Scientific, MA, USA). Equal amounts of proteins (20 μg) were separated on a 4 to 15% gradient SDS-polyacrylamide gel (Bio-Rad, Hercules, CA) and electro-transferred to nitrocellulose membrane. The membranes were then blocked with 5% milk in tris-buffered saline supplemented with 0.05% Tween 20 and further incubated with GAPDH monoclonal antibody (Invitrogen, CA, cat. no. MA5-27912), phospho-TBK1/NAK (Ser172) (D52C2) Rabbit mAb (Cell Signaling Technology, cat. no. 5483S), or phospho-IRF-3 (S396) Rabbit mAb (Cell Signaling Technology, cat. no. 4947S) at 4° C. overnight. The membranes were then incubated with goat anti-rabbit IgG (H+L) Secondary Antibody, HRP (Invitrogen, cat. no. TG266717) for 1 h at room temperature. Protein bands were visualized by chemiluminescence using the ECL Western Blotting Substrate (Thermo Fisher Scientific, MA).
# To stain the intracellular marker, e.g., IFN-γ, cells were pre-stimulated with cell stimulation cocktail (eBioscience, cat. no. 00-4970-93) for 4-6 h, fixed and permeabilized using fixation/permeabilization solution kit (BD, cat. no. 554714), and then stained with both anti-IFN-γ and other surface antibodies. Antibodies used for flow cytometry studies were anti-CD86-BUV395 (BD, cat. no. 564199), anti-CD45-BUV737 (BD, cat. no. 564880), anti-TCRβ-BV421 (Biolegend, cat. no. 109229), anti-NK1.1-BV605 (Biolegend, cat. no. 108739), anti-NK1.1-BV605 (Biolegend, cat. no. 108739), anti-CD8a-FITC (BD, cat. no. 553030), anti-CD4-PerCP/Cy5.5 (BD, cat. no. 550954), anti-CD62L-PE (Biolegend, cat. no. 104407), anti-CD19-PE/Cy7 (eBioscience, cat. no. 25-0193-81), anti-CD3-PE/594 (Biolegend, cat. no. 100245), anti-FOXP3-APC (eBioscience, cat. no. 17-5773-80), anti-CD11b-AF700 (Biolegend, cat. no. 201222), anti-CD8a-BV421 (Biolegend, cat. no. 100737), anti-Ly6g-BV510 (Biolegend, cat. no. 127633), anti-Siglec F-BV605 (BD, cat. no. 740388), anti-MHC II-BV786 (BD, cat. no. 743875), anti-Ly6c-AF488 (Biolegend, cat. no. 128021), anti-CD11c-PerCP/Cy5.5 (Biolegend, cat. no. 117327), anti-CD206-PE (Biolegend, cat. no. 141705), anti-CD197-PE/594 (Biolegend, cat. no. 120121), anti-F4/80-PE/Cy7 (Biolegend, cat. no. 123113), anti-CD200R3-APC (Biolegend, cat. no. 142207), anti-CD11b-AF700 (Biolegend, cat. no. 101222), and viability dye eFluor 780 (eBiosciecne, cat. no. 65-0865-14). Flow cytometry data were acquired on an LSRFortessa cell analyzer (BD) and analyzed using FlowJo software.
# [3] = day 16, cGAMP-MPs single injection, cGAMP-S three injections
smiles,measurement,setting,value
"Nc1nc2c(ncn2[C@@H]2O[C@@H]3COP(=O)(O)O[C@H]4[C@@H](O)[C@H](n5cnc6c(N)ncnc65)O[C@@H]4COP(=O)(O)O[C@H]3[C@H]2O)c(=O)[nH]1 [cGAMP-S, 3′3′-cGAMP]",increase of IFNγ+CD8+ T cells in serum compared to untreated,"[1]; day 21, cGAMP-MPs single injection, cGAMP-S four injections",4.9 fold
same,number of IFNγ+CD8+ T cells in serum,[1]; day 28 versus day 21,remained at an identical level
same,polarization of macrophages within the TME,[2]; 3 doses of soluble cGAMP or 1 dose of cGAMP-MPs,repolarization of M2-like macrophages in the tumor to M1-like phenotype
same,increase of CD8+/CD4+ T cell ratio,[2]; [3],1.2 fold
same,increase of TILs compared to untreated,[2]; [3],approximately 23.5 fold
same,increase of surface expression of CD86 on tumor infiltrating DCs,[2]; [3],1.7 fold
same,increase of tumor-infiltrating CD4+ T cells,[2]; [3],23.6 fold
same,increase of tumor-infiltrating CD8+ T cells,[2]; [3],24.4 fold
same,infiltrating natural killer (NK) cells,[2]; [3],increased
same,"influx of DCs, basophils, monocytes and macrophages",[2]; [3],promoted the influx
